Measured values as given in ChEMBL document CHEMBL1201862, “PubChem BioAssay data set” (2004).
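Each compound was tested at five concentrations against cells in 96-well plates for 48 hours. The concentration for 50% growth inhibition is given as GI50.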 Activity calls are given as the source filed them. No stated cut-off is given here; in the data, active = GI50 up to about 1.1 µM and inactive = higher.

Key:
Assay in all cases: inhibition of tumour cell growth, NCI panel, 48 h
[1] = tested on: 786-0
[2] = tested on: A549
[3] = tested on: SW-620
[4] = tested on: UO-31
[5] = tested on: ACHN
[6] = tested on: UACC-257
[7] = tested on: HCC 2998
[8] = tested on: PC-3
[9] = tested on: NCI-H460
[10] = tested on: SNB-19
[11] = tested on: HL-60
[12] = tested on: KM12
[13] = tested on: HOP-62
[14] = tested on: OVCAR-8
[15] = tested on: SF-295
[16] = tested on: NCI-H23
[17] = tested on: Malme-3M
[18] = tested on: A498
[19] = tested on: RXF 393

Measured: GI50

C/N=C(\N)N/N=C(\C)c1ccc2oc3ccc(/C(C)=N/N/C(N)=N/C)cc3c2c1
inactive: [1] 2.86 µM | [2] 2.86 µM | [3] 2.22 µM | [4] 6.31 µM | [5] 5.45 µM | [6] 25.6 µM | [7] 2 µM | [8] 3.01 µM | [9] 1.98 µM | [10] 2.11 µM | [11] 2.89 µM | [12] 3.16 µM | [13] 1.54 µM | [14] 9.27 µM | [15] 3.85 µM | [16] 2.39 µM

COc1nc(NC2OC(COC(C)=O)C(OC(C)=O)C(OC(C)=O)C2OC(C)=O)c(/N=C(\C)C(C)=O)c(=O)n1C (stereo unspecified)
inactive: [17] > 100 µM | [1] > 100 µM | [18] > 100 µM | [2] > 100 µM | [3] > 100 µM | [4] > 100 µM | [5] > 100 µM | [6] > 100 µM | [7] > 100 µM | [9] > 100 µM | [19] > 100 µM | [10] > 100 µM | [11] > 100 µM | [12] > 100 µM | [13] > 100 µM | [14] > 100 µM | [15] > 100 µM | [16] > 100 µM

CCOC(=O)Cc1nnc2c(-c3ccccc3)nc3ccccc3n12
inactive: [17] > 100 µM | [1] > 100 µM | [18] 52.5 µM | [2] > 100 µM | [3] > 100 µM | [4] 71 µM | [5] 19.8 µM | [6] > 100 µM | [7] 15.7 µM | [8] 34.5 µM | [9] > 100 µM | [19] 20.6 µM | [10] 24.8 µM | [11] > 100 µM | [12] > 100 µM | [13] 14.4 µM | [16] 43.3 µM

O=C(c1c(O)cc(O)cc1O)C1Cc2ccccc21 (stereo unspecified)
inactive: [17] > 100 µM | [1] 31.8 µM | [18] > 100 µM | [2] 91.6 µM | [3] > 100 µM | [4] 58.3 µM | [5] > 100 µM | [6] > 100 µM | [7] > 100 µM | [9] 82.4 µM | [19] 76 µM | [10] 64 µM | [11] 74 µM | [12] > 100 µM | [13] 45.2 µM | [14] 39.2 µM | [15] 42.3 µM

Cc1nc(Cc2n[nH]c(C)n2)n[nH]1
inactive: [1] > 100 µM | [2] > 100 µM | [3] > 100 µM | [4] > 100 µM | [5] > 100 µM | [6] > 100 µM | [7] > 100 µM | [8] > 100 µM | [19] > 100 µM | [10] > 100 µM | [12] > 100 µM | [13] > 100 µM | [14] > 100 µM | [15] > 100 µM | [16] > 100 µM

CC1=CC=NN2C(=O)[C@H](C)C2C1 (stereo partly specified)
inactive: [17] > 100 µM | [1] > 100 µM | [18] > 100 µM | [2] > 100 µM | [3] > 100 µM | [4] > 100 µM | [5] > 100 µM | [6] > 100 µM | [7] > 100 µM | [9] > 100 µM | [19] > 100 µM | [10] > 100 µM | [11] > 100 µM | [12] > 100 µM | [13] > 100 µM | [14] > 100 µM | [15] > 100 µM | [16] > 100 µM

Cc1ccccc1Nc1cn(CCOc2ccccc2)c(=O)n(CCOc2ccccc2)c1=O
inactive: [17] 3.33 µM | [1] > 100 µM | [18] > 100 µM | [2] > 100 µM | [3] > 100 µM | [4] > 100 µM | [5] > 100 µM | [6] > 100 µM | [7] > 100 µM | [8] > 100 µM | [9] > 100 µM | [19] > 100 µM | [10] > 10 µM | [11] > 100 µM | [12] > 100 µM | [13] 24.6 µM | [15] > 100 µM | [16] > 100 µM

CNC(=O)OCc1nc(SSc2nc(COC(=O)NC)c(COC(=O)NC)n2C)n(C)c1COC(=O)NC
inactive: [17] > 100 µM | [1] > 100 µM | [18] > 100 µM | [2] > 100 µM | [3] > 100 µM | [4] > 100 µM | [5] > 100 µM | [6] > 100 µM | [7] > 100 µM | [9] > 100 µM | [19] > 100 µM | [10] > 100 µM | [11] > 100 µM | [12] > 100 µM | [13] > 100 µM | [14] > 100 µM | [15] > 100 µM | [16] > 100 µM

O=C(Cc1nc2ccccc2s1)Nc1ccc(Cl)cc1
inactive: [17] > 100 µM | [1] > 100 µM | [18] > 100 µM | [2] 97.9 µM | [3] > 100 µM | [4] > 100 µM | [5] 56.5 µM | [6] > 100 µM | [7] > 100 µM | [9] > 100 µM | [19] > 100 µM | [10] > 100 µM | [11] > 100 µM | [12] 78.5 µM | [13] > 100 µM | [14] > 100 µM | [15] 55.6 µM | [16] > 100 µM

C/C(=N\NC(N)=S)c1ccc2c(c1)OCO2
inactive: [17] > 100 µM | [1] > 100 µM | [18] > 100 µM | [2] > 100 µM | [3] > 100 µM | [4] 76.2 µM | [5] > 100 µM | [6] 99.1 µM | [7] > 100 µM | [9] > 100 µM | [19] > 100 µM | [10] > 100 µM | [11] 21.2 µM | [12] > 100 µM | [13] > 100 µM | [14] > 100 µM | [15] > 100 µM | [16] > 100 µM

N#CC1CC2(CCN1C(=O)c1ccccc1)OCCO2 (stereo unspecified)
inactive: [17] > 100 µM | [1] > 100 µM | [18] > 100 µM | [2] > 100 µM | [3] > 100 µM | [4] > 100 µM | [5] > 100 µM | [6] > 100 µM | [7] > 100 µM | [9] > 100 µM | [19] > 100 µM | [10] > 100 µM | [11] > 100 µM | [12] > 100 µM | [13] > 100 µM | [14] > 100 µM | [15] > 100 µM | [16] > 100 µM
